The assay deals with T1, TNIK (Homo sapiens, UniProt Q9UKE5).
T1 construct: purchased Promega V4158
Briefly: ADP-Glo Kinase Assay, inhibition activity on TNIK. It counts as biochemical. The note with it: for pIC50: read-out: TNIK. The procedure:
The inhibition activities on TNIK, IKKε and TBK1 were measured by a luminometer, TNIK/IKKε/TBK1 Kinase Enzyme System (Promega, Ca# V4158; Invitrogen, PR8031B, Promega, Ca# V3991) and ADP-Glo Kinase Assay using ADP-Glo™ Kinase Analysis Kit (Promega, Ca# V9101) and a kinase reaction buffer [40 mM Tris(pH 7.5), 20 mM MgCl2, 0.1 mg/mL BSA] in accordance with the manufacturer's protocol.
Background: ADP-Glo turns the ADP formed in a reaction into a luminescent signal.

pIC50: −log10 of the molar value. Structures can show the parent of a compound that is named as a salt. A value given as a limit tells only on which side of the number the result lay.

T1 sequence (Q9UKE5 1-367 limits assumed): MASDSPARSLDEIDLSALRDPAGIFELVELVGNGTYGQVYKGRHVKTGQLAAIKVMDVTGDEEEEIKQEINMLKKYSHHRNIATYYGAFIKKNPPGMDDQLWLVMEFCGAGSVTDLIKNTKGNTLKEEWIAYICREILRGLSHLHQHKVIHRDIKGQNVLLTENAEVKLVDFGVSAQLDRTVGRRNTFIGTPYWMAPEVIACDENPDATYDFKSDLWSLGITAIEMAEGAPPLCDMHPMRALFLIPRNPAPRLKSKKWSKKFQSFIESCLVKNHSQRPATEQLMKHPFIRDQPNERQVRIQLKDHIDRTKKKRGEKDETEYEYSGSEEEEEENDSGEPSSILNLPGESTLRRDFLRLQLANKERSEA

With `Cc1ccc(C(=O)Nc2ccc(-c3ccccc3)c3c2C(=O)NC3)cc1` [Example 89, 4-Methyl-N-(3-oxo-7-phenylisoindolin-4-yl)benzamide], the pIC50 is 6.11.

In the case of `O=C(Nc1ccc(-c2ccccc2)c2c1C(=O)NC2)c1cccc(Cl)c1` [Example 90, 3-Chloro-N-(3-oxo-7-phenylisoindolin-4-yl)benzamide], the pIC50 is under 4.70.

`O=C(Nc1ccc(-c2ccccc2)c2c1C(=O)NC2)c1ccc(F)cc1F` [Example 91, 2,4-Difluoro-N-(3-oxo-7-phenylisoindolin-4-yl)benzamide]: the pIC50 is under 4.70.

As to `O=C(Nc1ccc(-c2ccccc2)c2c1C(=O)NC2)c1ccc(F)c(F)c1` [Example 92, 3,4-Difluoro-N-(3-oxo-7-phenylisoindolin-4-yl)benzamide], the pIC50 was under 4.70.

As for `Cc1ccc(C(=O)Nc2ccc(-c3ccccc3)c3c2C(=O)NC3)cc1C` [Example 93, 3,4-Dimethyl-N-(3-oxo-7-phenylisoindolin-4-yl)benzamide], the pIC50 is 5.96.

Consider `CN(C)c1ccccc1C(=O)Nc1ccc(-c2ccccc2)c2c1C(=O)NC2` [Example 94, 2-(Dimethylamino)-N-(3-oxo-7-phenylisoindolin-4-yl) benzamide], for which the pIC50 was under 4.70.

For `CN(C)c1cccc(C(=O)Nc2ccc(-c3ccccc3)c3c2C(=O)NC3)c1` [Example 95, 3-(Dimethylamino)-N-(3-oxo-7-phenylisoindolin-4-yl) benzamide], the “TNIK (μM)” value is “Insoluble”.

In the case of `CSc1ccccc1C(=O)Nc1ccc(-c2ccccc2)c2c1C(=O)NC2` [Example 96, 2-(Methylthio)-N-(3-oxo-7-phenylisoindolin-4-yl)benzamide], the pIC50 was 5.15.

For the compound `CSc1cccc(C(=O)Nc2ccc(-c3ccccc3)c3c2C(=O)NC3)c1` [Example 97, 3-(Methylthio)-N-(3-oxo-7-phenylisoindolin-4-yl)benzamide], the pIC50 is under 4.70.

As for `CS(=O)(=O)c1ccccc1C(=O)Nc1ccc(-c2ccccc2)c2c1C(=O)NC2` [Example 98, 2-(Methylsulfonyl)-N-(3-oxo-7-phenylisoindolin-4-yl) benzamide], the pIC50 is 4.98.

In the case of `CS(=O)(=O)c1cccc(C(=O)Nc2ccc(-c3ccccc3)c3c2C(=O)NC3)c1` [Example 99, 3-(Methylsulfonyl)-N-(3-oxo-7-phenylisoindolin-4-yl) benzamide], the pIC50 is 5.37.

With `CS(=O)(=O)c1ccc(C(=O)Nc2ccc(-c3ccccc3)c3c2C(=O)NC3)cc1` [Example 100, 4-(Methylsulfonyl)-N-(3-oxo-7-phenylisoindolin-4-yl) benzamide], the pIC50 was under 4.70.

As to `COc1ccc(C(=O)Nc2ccc(-c3ccccc3)c3c2C(=O)NC3)c(OC)c1` [Example 101, 2,4-Dimethoxy-N-(3-oxo-7-phenylisoindolin-4-yl)benzamide], the pIC50 is under 4.70.

With `COc1ccc(C(=O)Nc2ccc(-c3ccccc3)c3c2C(=O)NC3)cc1OC` [Example 102, 3,4-Dimethoxy-N-(3-oxo-7-phenylisoindolin-4-yl)benzamide], the “TNIK (μM)” value is “Insoluble”.

`O=C(Nc1ccc(-c2ccccc2)c2c1C(=O)NC2)c1ccc(Cl)cc1Cl` [Example 103, 2,4-Dichloro-N-(3-oxo-7-phenylisoindolin-4-yl)benzamide]: the pIC50 was under 4.70.

Regarding `O=C(Nc1ccc(-c2ccccc2)c2c1C(=O)NC2)c1ccc(Cl)c(Cl)c1` [Example 104, 3,4-Dichloro-N-(3-oxo-7-phenylisoindolin-4-yl)benzamide], the “TNIK (μM)” value is recorded as “Insoluble”.

Take `Cc1ccc(C(=O)Nc2ccc(-c3ccccc3)c3c2C(=O)NC3)c(C)c1` [Example 105, 2,4-Dimethyl-N-(3-oxo-7-phenylisoindolin-4-yl)benzamide]: the pIC50 was under 4.70.

Consider `CC(=O)Nc1ccccc1C(=O)Nc1ccc(-c2ccccc2)c2c1C(=O)NC2` [Example 106, 2-Acetamido-N-(3-oxo-7-phenylisoindolin-4-yl)benzamide], for which the pIC50 is under 4.70.

On to `CC(=O)Nc1cccc(C(=O)Nc2ccc(-c3ccccc3)c3c2C(=O)NC3)c1` [Example 107, 3-Acetamido-N-(3-oxo-7-phenylisoindolin-4-yl)benzamide], for which the pIC50 was 6.32.

As for `CNc1ccc(C(=O)Nc2ccc(-c3ccccc3)c3c2C(=O)NC3)cc1` [Example 108, 4-(Methylamino)-N-(3-oxo-7-phenylisoindolin-4-yl)benzamide], the pIC50 was 6.11.

Take `Cc1ccsc1C(=O)Nc1ccc(-c2ccccc2)c2c1C(=O)NC2` [Example 109, 3-Methyl-N-(3-oxo-7-phenylisoindolin-4-yl)thiophene-2-carboxamide]: the pIC50 was under 4.70.

With `Cc1csc(C(=O)Nc2ccc(-c3ccccc3)c3c2C(=O)NC3)c1` [Example 110, 4-Methyl-N-(3-oxo-7-phenylisoindolin-4-yl)thiophene-2-carboxamide], the pIC50 was under 4.70.

Turning to `Cc1ccc(C(=O)Nc2ccc(-c3ccccc3)c3c2C(=O)NC3)s1` [Example 111, 5-Methyl-N-(3-oxo-7-phenylisoindolin-4-yl)thiophene-2-carboxamide], the pIC50 was 6.27.

In the case of `Cc1ccccc1-c1ccc(NC(=O)c2ccccc2)c2c1CNC2=O` [Example 112, N-(3-oxo-7-(o-tolyl)isoindolin-4-yl)benzamide], the pIC50 was 5.66.

On to `Cc1cccc(-c2ccc(NC(=O)c3ccccc3)c3c2CNC3=O)c1` [Example 113, N-(3-oxo-7-(m-tolyl)isoindolin-4-yl)benzamide], for which the pIC50 was 5.77.

In the case of `O=C(Nc1ccc(-c2ccccc2C(F)(F)F)c2c1C(=O)NC2)c1ccccc1` [Example 114, N-(3-oxo-7-(2-(trifluoromethyl)phenyl)isoindolin-4-yl) benzamide], the pIC50 was under 4.70.

As to `O=C(Nc1ccc(-c2cccc(C(F)(F)F)c2)c2c1C(=O)NC2)c1ccccc1` [Example 115, N-(3-oxo-7-(3-(trifluoromethyl)phenyl)isoindolin-4-yl) benzamide], the pIC50 was under 4.70.

In the case of `CC(=O)Nc1ccc(C(=O)Nc2ccc(-c3ccccc3)c3c2C(=O)NC3)cc1` [Example 116, 4-Acetamido-N-(3-oxo-7-phenylisoindolin-4-yl)benzamide], the pIC50 is 6.89.

Take `O=C(Nc1ccc(-c2ccccc2)c2c1C(=O)NC2)c1ccccc1` [Example 117, N-(3-oxo-7-phenylisoindolin-4-yl)benzamide]: the pIC50 is 5.63.

Turning to `COc1ccc(-c2ccc(NC(=O)c3ccccc3)c3c2CNC3=O)cc1` [Example 118, N-(7-(4-methoxyphenyl)-3-oxoisoindolin-4-yl)benzamide], the pIC50 was under 4.70.

For `O=C(Nc1ccc(-c2ccccc2)c2c1C(=O)NC2)c1ccc([N+](=O)[O-])cc1` [Example 119, 4-Nitro-N-(3-oxo-7-phenylisoindolin-4-yl)benzamide], the “TNIK (μM)” value is “Insoluble”.

With `COc1ccc(-c2ccc(NC(=O)c3ccc(NC(C)=O)cc3)c3c2CNC3=O)cc1` [Example 120, 4-Acetamido-N-(7-(4-methoxyphenyl)-3-oxoisoindolin-4-yl) benzamide], the pIC50 is under 4.70.

As for `COc1ccc(C(=O)Nc2ccc(-c3ccccc3)c3c2C(=O)NC3)cc1` [Example 121, 4-Methoxy-N-(3-oxo-7-phenylisoindolin-4-yl)benzamide], the pIC50 is 5.47.

As for `O=C(Nc1ccc(-c2ccccc2)c2c1C(=O)NC2)c1ccc(F)cc1` [Example 122, 4-Fluoro-N-(3-oxo-7-phenylisoindolin-4-yl)benzamide], the pIC50 was 5.66.

With `COc1ccc(C(=O)Nc2ccc(-c3ccc(F)cc3)c3c2C(=O)NC3)cc1` [Example 123, N-(7-(4-fluorophenyl)-3-oxoisoindolin-4-yl)-4-methoxy benzamide], the pIC50 is 5.15.

On to `CC(=O)Nc1ccc(C(=O)Nc2ccc(-c3ccc(F)cc3)c3c2C(=O)NC3)cc1` [Example 124, 4-Acetamido-N-(7-(4-fluorophenyl)-3-oxoisoindolin-4-yl) benzamide], for which the pIC50 is 6.77.

Turning to `O=C(Nc1ccc(-c2cccs2)c2c1C(=O)NC2)c1ccccc1` [Example 125, N-(3-oxo-7-(thiophen-2-yl)isoindolin-4-yl)benzamide], the pIC50 was 5.85.

In the case of `O=C(Nc1ccc(-c2ccco2)c2c1C(=O)NC2)c1ccccc1` [Example 126, N-(7-(furan-2-yl)-3-oxoisoindolin-4-yl)benzamide], the pIC50 is 6.22.

For `O=C(Nc1ccc(-c2ccncc2)c2c1C(=O)NC2)c1ccccc1` [Example 127, N-(3-oxo-7-(pyridin-4-yl)isoindolin-4-yl)benzamide], the “TNIK (μM)” value is given as “Insoluble”.

Take `O=C(Nc1ccc(-c2ccncc2)c2c1C(=O)NC2)c1ccccc1` [Example 128, N-(3-oxo-7-(pyridin-4-yl)isoindolin-4-yl)benzamide hydrochloride]: the pIC50 was under 4.70.

Consider `COc1ccccc1C(=O)Nc1ccc(-c2ccccc2)c2c1C(=O)NC2` [Example 129, 2-Methoxy-N-(3-oxo-7-phenylisoindolin-4-yl)benzamide], for which the pIC50 is under 4.70.

In the case of `O=C(Nc1ccc(-c2ccccc2)c2c1C(=O)NC2)c1cccc(F)c1` [Example 130, 3-fluoro-N-(3-oxo-7-phenylisoindolin-4-yl)benzamide], the pIC50 is under 4.70.

As to `CSc1ccc(C(=O)Nc2ccc(-c3ccccc3)c3c2C(=O)NC3)cc1` [Example 131, 4-(Methylthio)-N-(3-oxo-7-phenylisoindolin-4-yl)benzamide], the pIC50 is 5.64.

On to `CCCOc1ccc(-c2ccc(NC(=O)c3ccccc3)c3c2CNC3=O)cc1` [Example 132, N-(3-oxo-7-(4-propoxyphenyl)isoindolin-4-yl)benzamide], for which the pIC50 is under 4.70.

With `CC(C)c1ccc(-c2ccc(NC(=O)c3ccccc3)c3c2CNC3=O)cc1` [Example 133, N-(7-(4-isopropylphenyl)-3-oxoisoindolin-4-yl)benzamide], the pIC50 was under 4.70.
